From publication PMC11609934, “Exploration and characterization of the antimalarial activity of cyclopropyl carboxamides that target the mitochondrial protein, cytochrome b” (European Journal of Medicinal Chemistry, 2024)
Read-outs that look alike come from different tables or passages of the source.

What was measured:
[1] = system: Pf SB1-A6 strain; design: method as in Nguyen, Dans et al. [8]; settings: known drug controls; ref Nguyen, Dans et al. [8]; cited from earlier work
[2] = system: P. falciparum 3D7 parasites; assay: P. falciparum 3D7 asexual stage LDH assay (72 h); format: cell-based, Plasmodium falciparum; settings: Plasmodium falciparum, 3D7 / DSM 265, parent 3D7 for resistant populations; LDH assay, 3 experiments (SYBR-green for DSM265); read-out: Pf 3D7 EC50 (SD)
Procedure, shortened: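 Asexual P. falciparum 3D7 parasites were grown for 72 h over a 10-point, 3-fold series starting at 1 μM in 0.1% DMSO, with 100 nM chloroquine as negative growth control. After freeze-thaw, parasite LDH was read at 650 nm, and EC50 came from a variable-slope sigmoidal fit.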

[3] = system: Pf Dd2 expressing ScDHODH; design: method as in Nguyen, Dans et al. [8]; settings: known drug controls; ref Nguyen, Dans et al. [8]; cited from earlier work
[4] = system: mitochondrial ETC; assay: P. falciparum oxygen consumption rate (OCR) assay (Seahorse XFe96); format: cell-based, Plasmodium falciparum; settings: compounds 5 μM
Procedure: To provide further evidence to support the cyclopropyl carboxamide series targeting cyt b, an oxygen consumption rate (OCR) assay was performed using a Seahorse XFe96 Flux Analyzer. The primary role of the mitochondria ETC is to produce ATP oxidative phosphorylation, and thus the oxygen consumption directly quantifies mitochondrial ETC activity. In this assay, malate, which is a substrate of malate quinone dehydrogenase (MQD), was added to provide a base line of oxygen consumption at approximately 50 pmol/min (Fig. 4). […] Finally, NaN3 was added to inhibit complex IV to bring the OCR back to basal levels.
Fig. 4 P. falciparum oxygen consumption rate (OCR) assay. Data represent the means and SDs of 3 technical replicates. Time points and reagent injections were as follows, 1. First 5 timepoints measured the basal level of malate-dependent OCR; 2. Compounds (5 μM) were injected independently (indicated by arrow), and OCR measured for 8-timepoints; 3. TMPD (a cytochrome c electron donor) was injected, and OCR measured for 5 time points; 4. NaN3 (a complex IV inhibitor) was then added, and OCR measured for 5 time points.
ETC Biosensor Assay. This assay was performed as previously described. Briefly, 3 × 10^8 trophozoite infected RBCs were purified using the SuperMACS II separator (Miltenyi Biotec, Germany). The trophozoite-stage parasites were released from erythrocytes by treating them with 0.05 % (w/v) pre-warmed saponin in phosphate-buffered saline (PBS) at 37 °C for 3 min. The cells were washed with pre-warmed PBS, three times. […] The cells were measured for oxygen consumption rate (OCR) using Seahorse XFe96 flux analyzer (Agilent). The OCR was assessed for five cycles of 20 s mixing, 1 min waiting, 2.5 min measuring to establish baseline OCR before any substrate injections, for eight cycles of 20 s mixing, 1 min waiting followed by 2.5 min measuring after inhibitor injection from port A and for five cycles of 20 s mixing 1 min waiting, 2.5 min measuring after TMPD, and NaN3, injections.

[5] = system: W466-resistant populations; assay: 72 h growth assay against W466-resistant populations; format: cell-based, Plasmodium falciparum; settings: Plasmodium falciparum
From the text: To determine the mechanism of action of the cyclopropyl carboxamide series, a forward genetic resistance study was undertaken on the two hit compounds W466 (1) and W499 (2).
The structures of W466 (1) and W499 (2) are slightly different although they appear to belong to the same structural class. To confirm if W466 (1) and W499 (2) may have the same molecular target, W466 (1) and W499 (2) were each evaluated for cross resistance against their respective resistant populations from the pulsed forward genetic study (Fig. 2).

[6] = system: W499-resistant populations; assay: microbe, parasite or virus in culture; format: cell-based, Plasmodium falciparum; settings: for EC50: Plasmodium falciparum
From the text: To confirm if W466 (1) and W499 (2) may have the same molecular target, W466 (1) and W499 (2) were each evaluated for cross resistance against their respective resistant populations from the pulsed forward genetic study (Fig. 2).

[7] = system: Pf Dd2 parental line; settings: known drug controls; ref Nguyen, Dans et al. [8]; cited from earlier work
[8] = system: ring-stage P. falciparum parasites; assay: Asexual stage of arrest assay; format: cell-based, Plasmodium falciparum; settings: 10 times EC50, sampled every 12 h for 48 h
Procedure: Characterization of asexual stage phenotype and rate of asexual kill is important in determining the downstream application and TCP of an antimalarial series. […] Parasites were sampled every 12 h for 48 h, to prepare Giemsa-stained blood smears for analysis by microscopy. Parasitemia of each sample was measured by flow cytometry using SYBR-Green DNA staining.
Asexual Stage of Arrest Assay. This assay was conducted as previously described.

[9] = system: Pf 3D7 3-oxadiazole quinolone resistant strain with a V259L mutation in the Qo site of cyt b; design: method as in Nguyen, Dans et al. [8]; settings: known drug controls; ref Nguyen, Dans et al. [8]; read-out: Pf cyt b mutant strains EC50 3D7 cyt b(V259L); cited from earlier work
[10] = system: Pf Dd2 strain with an I22L mutation in the Qi site cyt b; design: method as in Nguyen, Dans et al. [8]; settings: known drug controls; ref Nguyen, Dans et al. [8]; read-out: Pf cyt b mutant strains EC50 Dd2 cyt b(I22L); cited from earlier work
[11] = system: human HepG2 cell line; assay: Human HepG2 growth inhibition assay (Cell TitreGlo, 48 h); format: cell-based; settings: HepG2 cell growth inhibition over 48 h
Procedure, shortened: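 HepG2 cells (1000/well, DMEM + 10% FCS) exposed 48 h at 37 °C, 5% CO2 to compound from 50 μM top concentration in 1:2 dilutions, 0.5% DMSO final. Viability read by Cell Titer Glo, normalised to DMSO and 10 μM bortezomib; EC50 by four-parameter variable-slope fit.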

[12] = read-out: W466-resistant populations EC50 (SD) #1
[13] = read-out: W466-resistant populations EC50 (SD) #2
[14] = read-out: W466-resistant populations EC50 (SD) #3
[15] = DSM265, read-out: W499-resistant populations EC50 (SD) #2
[16] = DSM265, read-out: W499-resistant populations EC50 (SD) #3

Which results are given for `O=C1C(O)=C([C@H]2CC[C@H](c3ccc(Cl)cc3)CC2)C(=O)c2ccccc21` [ATQ, atovaquone]?
EC50 [1]: > 10000 nM; EC50 [2]: 1 nM; EC50 [3]: > 10000 nM; effect on malate-dependent oxygen consumption rate (OCR) [4]: an OCR reduction was detected; EC50 ([5]; read-out: EC50 against W466-resistant parasites): 1 nM; EC50 [5, 12]: 2 nM; EC50 [5, 13]: 1 nM; EC50 [5, 14]: 1 nM; EC50 [6, 15]: 4 nM; EC50 [6, 16]: 3 nM; EC50 [7]: 1 nM; asexual stage of arrest [8]: arrest at the trophozoite stage

What does the source list for `Cc1cc(Nc2ccc(S(F)(F)(F)(F)F)cc2)n2nc(C(C)(F)F)nc2n1` [DSM265]?
EC50 [1]: > 10000 nM; EC50 [2]: 53 nM; EC50 [3]: > 10000 nM; effect on malate-dependent oxygen consumption rate (OCR) [4]: didn't change the basal OCR; EC50 [5, 12]: 19 nM; EC50 [5, 13]: 13 nM; EC50 [5, 14]: 13 nM; fold shift in EC50 against W499-resistant populations compared to wildtype 3D7 [6]: > 10 fold; EC50 [6, 15]: > 1000 nM; EC50 [6, 16]: > 1000 nM; EC50 ([6]; read-out: EC50 against W499-resistant parasites): > 1000 nM; EC50 [7]: 24 nM

Which results are given for `COc1cc2[nH]c(C)c(-c3ccc(Oc4ccc(OC(F)(F)F)cc4)cc3)c(=O)c2cc1Cl` [ELQ300]?
EC50 [2]: 13 nM; EC50 [9]: 12 nM; EC50 [5, 12]: 36 nM; EC50 [5, 13]: 18 nM; EC50 [5, 14]: 20 nM; fold shift in EC50 against W499-resistant populations compared to wildtype 3D7 [6]: 2 fold; EC50 [6, 15]: 53 nM; EC50 [6, 16]: 45 nM; EC50 [7]: 21 nM; EC50 [10]: 176 nM

Which CC50 [11] does the source give for “N-Cyclopropyl-4-((cyclopropyl(3,4-dimethylbenzyl)amino)methyl)benzamide [Compound 79]” here?
The CC50 was over 40000 nM.
